Literature values, collected in patent publication US20250009771A1, “PHARMACEUTICAL COMPOSITION FOR TREATING COLORECTAL CANCER, INCLUDING TUMOR-TARGETED LIPOSOMES CONTAINING PLATYCODIN D2” (INDUSTRY-UNIVERSITY COOPERATION FOUNDATION HANYANG …, priority 2023, published 2025).

Legend:
BCL-XL = biological target: T1, BCL-XL (Homo sapiens, UniProt Q07817); details: cited from earlier work
T1 construct: host or cells: adenomas and tumor organoids (endogenous protein)

[1] = slightly acidic pH; cited from earlier work

T1 sequence (Q07817 whole entry, species assumed): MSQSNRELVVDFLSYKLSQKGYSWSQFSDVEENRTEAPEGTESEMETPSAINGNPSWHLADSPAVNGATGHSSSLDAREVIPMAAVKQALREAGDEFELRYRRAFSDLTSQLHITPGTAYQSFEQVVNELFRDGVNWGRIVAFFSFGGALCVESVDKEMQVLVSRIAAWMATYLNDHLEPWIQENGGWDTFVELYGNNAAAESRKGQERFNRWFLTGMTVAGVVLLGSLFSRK

Compound	clonogenic potential of adenomas and tumor organoids (BCL-XL)	pK of insertion into the cell membrane [1]
CN(C)CC#Cc1ccc(OCCCc2sc(N3CCc4cccc(C(=O)Nc5nc6ccccc6s5)c4C3)nc2C(=O)O)c(F)c1 [A-1155463]	significantly impaired	–
GLAGLAGLLGLEGLLGLPLGLLEGLWLGLELEGN [ATRAM, pH-responsive acidity-triggered rational membrane peptide]	–	6.5
